Data from ChEMBL document CHEMBL1136186, “Microcystin analogues comprised only of Adda and a single additional amino acid retain moderate activity as PP1/PP2A inhibitors” (Bioorg Med Chem Lett, 2003).
*1 amine or outer side, *2 acyl side, *3 side chain or, on linkers, in order; H or OH if unused. Where a SMILES comes first, the peptide text is derived from it. Bridges are numbered along the chain shown (N, C = ends). [ ]: non-standard residue; d: D form. Adda = CO[C@@H](Cc1ccccc1)[C@@H](C)/C=C(C)/C=C/[C@H](N[*:1])[C@H](C)C(=O)[*:2]; dAsp(3S-Me) = C[C@H](C(=O)[*:3])[C@@H](N[*:1])C(=O)[*:2]; d(γGlu) = O=C(O)[C@@H](CCC(=O)[*:2])N[*:1]; NMeDha = C=C(NC)C(=O)O

Columns and labels:
[1] = species on record: Oryctolagus cuniculus; test: Ratio of inhibition of PP1 to that of inhibition of PP2A using phosphorylase-a assay
[2] = target: T1, Serine/threonine-protein phosphatase 2A catalytic subunit alpha isoform (Bos taurus, UniProt P67774); test: Inhibitory concentration against protein phosphatase 2A (PP2A) using pNPP assay; design: species or system Oryctolagus cuniculus
[3] = target: T1, Serine/threonine-protein phosphatase 2A catalytic subunit alpha isoform; test: Inhibitory concentration against protein phosphatase 2A (PP2A) using phosphorylase-a assay; design: species or system Oryctolagus cuniculus

T1 sequence (P67774 whole entry, canonical isoform): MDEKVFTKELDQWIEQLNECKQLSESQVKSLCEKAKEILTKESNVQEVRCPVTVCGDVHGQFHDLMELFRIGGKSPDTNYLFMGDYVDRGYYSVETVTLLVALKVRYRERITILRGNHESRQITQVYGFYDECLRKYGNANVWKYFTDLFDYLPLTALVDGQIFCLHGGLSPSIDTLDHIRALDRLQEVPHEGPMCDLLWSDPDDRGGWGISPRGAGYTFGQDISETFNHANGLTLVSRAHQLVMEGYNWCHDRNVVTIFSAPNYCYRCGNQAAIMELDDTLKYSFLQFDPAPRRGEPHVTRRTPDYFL

| SMILES | Ratio [1] | IC50 [2] [µM] | IC50 [3] [µM] |
| --- | --- | --- | --- |
| CO[C@@H](Cc1ccccc1)[C@@H](C)/C=C(C)/C=C/[C@H](NC(C)=O)[C@H](C)C(=O)N1[C@H](C(=O)O)CC[C@H]1C(=O)O | > 1.3 | > 39 | – |
| CC(=O)N[C@@H](/C=C/C(C)=C/c1ccc(-c2ccccc2)cc1)[C@H](C)C(=O)N[C@H](C)C(=O)O | – | > 100 | – |
| CC(=O)N[C@@H](/C=C/C(C)=C/CCCc1ccccc1)[C@H](C)C(=O)N[C@H](C)C(=O)O | – | > 100 | – |
| CO[C@@H](Cc1ccccc1)[C@@H](C)/C=C(C)/C=C/[C@H](NC(C)=O)[C@H](C)C(=O)N[C@@H](C)C(=O)O | 1.22 | – | 7.8 |
| CO[C@@H](Cc1ccccc1)[C@@H](C)/C=C(C)/C=C/[C@H](NC(C)=O)[C@H](C)C(=O)N1C[C@H](C(=O)O)C[C@@H]1C(=O)O | – | > 100 | – |
| CO[C@@H](Cc1ccccc1)[C@@H](C)/C=C(C)/C=C/[C@H](NC(C)=O)[C@H](C)C(=O)N1CCCC1 | – | > 100 | – |
| CO[C@@H](Cc1ccccc1)[C@@H](C)/C=C(C)/C=C/[C@H](NC(C)=O)[C@H](C)C(=O)N1CCC[C@@H]1C(=O)O | 2 | > 25 | – |
| CO[C@@H](Cc1ccccc1)[C@@H](C)/C=C(C)/C=C/[C@H](NC(C)=O)[C@H](C)C(=O)N[C@H](C)C(=O)O | 6 | 7 | 0.16 |
| CO[C@@H](Cc1ccccc1)[C@@H](C)/C=C(C)/C=C/[C@H](NC(C)=O)[C@H](C)C(=O)N1CCC[C@H]1C(=O)O | – | > 100 | – |
| C=C1C(=O)N[C@H](C)C(=O)N[C@@H](CC(C)C)C(=O)N[C@@H](C(=O)O)[C@H](C)C(=O)N[C@@H](C)C(=O)N[C@@H](/C=C/C(C)=C/[C@H](C)[C@H](Cc2ccccc2)OC)[C@H](C)C(=O)N[C@@H](C(=O)O)CCC(=O)N1C (A[Adda][d(γGlu)][NMeDha][dA]L[dAsp(3S-Me)]-OH; lactam N-7) | 1 | 0.003 | 0.0003 |
| CO[C@@H](Cc1ccccc1)[C@@H](C)/C=C(C)/C=C/[C@H](NC(C)=O)[C@H](C)C(=O)NCC(=O)O | 1.11 | – | 0.5 |
| CO[C@@H](Cc1ccccc1)[C@@H](C)/C=C(C)/C=C/[C@H](NC(C)=O)[C@H](C)C(=O)N1[C@@H](C(=O)O)CC[C@H]1C(=O)O | > 5 | 10 | – |
| CO[C@@H](Cc1ccccc1)[C@@H](C)/C=C(C)/C=C/[C@H](NC(C)=O)[C@H](C)C(=O)N1C[C@H](O[Si](C(C)C)(C(C)C)C(C)C)C[C@@H]1C(=O)O | > 2 | > 63 | – |
| CO[C@@H](Cc1ccccc1)[C@@H](C)/C=C(C)/C=C/[C@H](NC(C)=O)[C@H](C)C(=O)N(CC(=O)O)CC(=O)O | – | > 100 | – |
| CO[C@@H](Cc1ccccc1)[C@@H](C)/C=C(C)/C=C/[C@H](NC(C)=O)[C@H](C)C(=O)N1C[C@H](C(=O)O)C[C@H]1C(=O)O | – | > 100 | – |
| CO[C@@H](Cc1ccccc1)[C@@H](C)/C=C(C)/C=C/[C@H](NC(C)=O)[C@H](C)C(=O)N1C[C@@H](C(=O)O)C[C@@H]1C(=O)O | – | > 100 | – |
| COC(=O)[C@H]1CCCN1C(=O)[C@@H](C)[C@H](/C=C/C(C)=C/[C@H](C)[C@H](Cc1ccccc1)OC)NC(C)=O | – | > 100 | – |
| COC(=O)[C@@H]1CCCN1C(=O)[C@@H](C)[C@H](/C=C/C(C)=C/[C@H](C)[C@H](Cc1ccccc1)OC)NC(C)=O | – | > 100 | – |
| CC(=O)N[C@@H](/C=C/C(C)=C/c1ccccc1Cc1ccccc1)[C@H](C)C(=O)N[C@H](C)C(=O)O | – | > 100 | – |
